Where “and” joins values, the source holds several entries; their conditions need not be identical. Equal entries are not always repeated.
How the values were obtained:
[1] = 20° C.; cited from earlier work
bacteria and fungi = experiment: flowing system (Phase II): culture tests for the presence of bacteria and fungi; type: cell-based; set-up: key to growth in TM (test medium) / growth in M (malt broth) / growth in PM (peptonemethylamine broth) / growth in P (peptone broth) / growth in BP: Bacterial growth (Bac); Phytoplankton (PHY)
Experimental: Bigelow Laboratory inoculated 200 μL of sample into various media the day after the samples were collected. The flow rate, water pressure (PSI), temperature, ultrasonic treatment system (UTS) and ozone treatment values were provided by ETI. The hydrogen ion concentration (pH) and salinity values were determined at Bigelow Laboratory. Culture treatments included tests for the presence of bacteria and fungi [peptonemethylamine broth (PM), peptone broth (P), test medium (TM), malt broth (M)] and tests for the presence of phytoplankton [DY-V medium, freshwater (DYV), K medium, oceanic (K), L1+NH4, coastal (L1+NH4), black sea medium, brackish at 16 psu (Blk Sea), L1/24 medium, coastal at 24 psu (L1/24), Prov medium, coastal enriched with soil extract (Prov)]. Bacterial growth (Bac) developed in all of the bacterial test media. Phytoplankton (PHY) grew in all algal growth media (see footnotes for details).
(§1) A summary of data is provided in Table 6, below, from a second batch of harbor water samples that were likewise examined by Bigelow Laboratory the day after they were collected. 200 μL of sample was inoculated into various media. The flow rate, water pressure (PS), temperature, ultrasonic treatment system (UTS) and ozone treatment values were provided by ETI. The hydrogen ion concentration (pH) and salinity values were determined at Bigelow Laboratory. Culture treatments included tests for the presence of bacteria and fungi [peptonemethylamine broth (PM), peptone broth (P), test medium (TM), malt broth (M)] and tests for the presence of phytoplankton [DY-V medium, freshwater (DYV), K medium, oceanic (K), L1+NH4, coastal (L1+NH4), black sea medium, brackish at 16 psu (Blk Sea), L1/24 medium, coastal at 24 psu (L1/24), Prov medium, coastal enriched with soil extract (Prov)]. Bacterial growth (Bac) developed in all of the bacterial test media. Zooflagellates (Zoo) grew in all algal growth media from inlet and strainer samples but none from the outlet samples.
as §1, with “In table 7, below, a” for “A”, “provided” for “provided in Table 6, below,”, “all” for “all of the bacterial”, “media without ozone treatment or growth (Bac) developed” for “media. Zooflagellates (Zoo) grew”, “test” for “algal growth”, “without ozone treatment or with a flow rate over 30 gpm.” for “from inlet and strainer samples but none from the outlet samples.”
as §1, with “In table 8, below, a” for “A”, “provided” for “provided in Table 6, below,”, “(PSI),” for “(PS),”, “Bacterial growth (Bac) developed in all of the bacterial test media. Zooflagellates (Zoo) grew in all algal growth media from inlet and strainer samples but none from the outlet samples.” left out

Cryptosporidium oocysts = conditions: exposure for 1 minute; cited from earlier work
[2] = test system: B. subtilis var. niger endospores ATCC 9372; experiment: batch challenge of B. subtilis endospores in deionized buffered water, plate count; type: cell-based, Bacillus subtilis
invertebrates = conditions: typical applications; cited from earlier work
[3] = ozone mass transport into water in acoustic reactor; type: physicochemical; conditions: high acoustic intensity (215 dB) versus low acoustic intensity (205 dB, nominally same as sparger)
Experimental: Adopting the same approach as above, acoustic energy at 205 and 215 dB re 1 μPa at 75 Hz was supplied along with the ozone over the same range of concentration. The acoustic pressure signal of the sonic devices was detected with a hydrophone sensor placed in the reactor. A typical 214 dB signal is shown in the captured trace in FIG. 11. In this series of experiments with a constant 1.5 mg/L concentration, the applied power of the ozone generator was constant; i.e., it was not controlled by the feedback of the dissolved ozone concentration controller. Higher intensity of applied acoustic energy appears to correlate to an increase in ozone mass transport. Utilizing the slopes of the ozone concentration curves, one can calculate an apparent mass transfer coefficient about 40% greater for the high acoustic intensity than for the low acoustic intensity, which was nominally the same as the sparger. This effect has been noted in other applications of ozone mixing, specifically in the oxidative treatment of waste streams. Intensity of this magnitude corresponds to pressure fluctuations of over 8 psi.

[4] = test system: organisms contained in the ballast water; experiment: batch challenge of unfortified actual ballast water; type: cell-based
Experimental: The basic approach was evaluated with batch challenging of actual ballast water. The water came from the hold of a ship originating from Port Moin, Costa Rica. Ballast water in the ship was sampled in the Port of Philadelphia, and the biota in the samples was characterized by the Bigelow Laboratory for Ocean Sciences. About 80% of the water was taken on or exchanged in the Caribbean, while it is believed that the remaining 20% came from the port of origin. The water had been in the ballast tanks for 21 days, and total ballast capacity of the vessel was 265 cubic meters. The samples were drawn at the 73 cubic meter level.
A challenge was made of unfortified ballast water (without B. subtilis endospores) to assess the killing of organisms contained in the ballast water. For this test, an applied ozone power of 660 watts was used with 0.8 m^3hr^−1. The samples were quenched by adding 10 ml of 1% sodium thiosulfate to the 1 L HDPE collection bottles prior to collecting the samples. A control sample without ozone treatment or quenchant was submitted along with a control containing the quenchant without treatment.
The treatment times for the samples were in one-minute increments from one to five minutes.

phytoplankton = experiment: flowing system (Phase II): culture tests for the presence of phytoplankton; type: cell-based; set-up: key: Bacterial growth (Bac); Phytoplankton (PHY); conditions: outlet, 125 gpm, UTS Full, ozone Full (1.0 mg/L), 8 psu; samples 3A, 4A
[5] = outlet, 125 gpm, UTS Full, ozone Full (1.0 mg/L), 8 psu, samples 3A, 4A
[6] = sample 17A: outlet, 10 gpm, UTS Full, ozone 60.0%, 7 psu
[7] = sample 20A: outlet, 30 gpm, UTS Full, ozone 60.0%, 7 psu
[8] = sample 23A: outlet, 50 gpm, UTS Full, ozone 60.0%, 7 psu
[9] = sample 26A: outlet, 88 gpm, UTS Full, ozone 60.0%, 7 psu
[10] = sample 35A: outlet, 50 gpm, UTS Full, ozone Full (1.0 mg/L), 9 psu, one of the triplicate cultures had bacteria
[11] = sample 36A: outlet, 50 gpm, UTS Off, ozone Full (1.0 mg/L), 9 psu
[12] = sample 38A: outlet, 100 gpm, UTS Full, ozone Full (1.0 mg/L), 9 psu, triplicate
[13] = ozone power 660 watts, 0.8 m^3hr^−1, treatment 1 to 5 minutes

For OBr [Hypobromous acid], the pKa [1] is given as 8.8.
For O=[O+][O-] [Ozone, ozone], the “bacteria in outlet samples” value (bacteria and fungi; full ozone treatment, flow rates of 30 gpm or less, 21-day incubation) was “killed all bacteria”, the “growth in M (malt broth)” value (bacteria and fungi; [5]) was “Bac” and the “growth in P (peptone broth)” value (bacteria and fungi; [5]) was “Bac”. For the same molecule, the “growth in PM (peptonemethylamine broth)” value (bacteria and fungi; [5]) was “Bac”, the “growth in TM (test medium)” value (bacteria and fungi; [5]) was “Bac” and the “growth in M (malt broth)” value (bacteria and fungi; [6]) was “Bac”. The “growth in P (peptone broth)” value (bacteria and fungi; [6]) was “Bac”, the “growth in PM (peptonemethylamine broth)” value (bacteria and fungi; [6]) was “Bac” and the “growth in TM (test medium)” value (bacteria and fungi; [6]) was “Bac”. For the same molecule, the “growth in M (malt broth)” value (bacteria and fungi; [7]) was “Bac”, the “growth in P (peptone broth)” value (bacteria and fungi; [7]) was “Bac” and the “growth in PM (peptonemethylamine broth)” value (bacteria and fungi; [7]) was “Bac”. The “growth in TM (test medium)” value (bacteria and fungi; [7]) was “Bac”, the “growth in M (malt broth)” value (bacteria and fungi; [8]) was “Bac” and the “growth in P (peptone broth)” value (bacteria and fungi; [8]) was “Bac”. For the same molecule, the “growth in PM (peptonemethylamine broth)” value (bacteria and fungi; [8]) was “Bac”, the “growth in TM (test medium)” value (bacteria and fungi; [8]) was “Bac” and the “growth in M (malt broth)” value (bacteria and fungi; [9]) was “Bac”. For the same molecule, the “growth in P (peptone broth)” value (bacteria and fungi; [9]) was “Bac”, the “growth in PM (peptonemethylamine broth)” value (bacteria and fungi; [9]) was “Bac” and the “growth in TM (test medium)” value (bacteria and fungi; [9]) was “Bac”. The “growth in M (malt broth)” value (bacteria and fungi; [10]) was “Bac^3”, the “growth in PM (peptonemethylamine broth)” value (bacteria and fungi; [10]) was “Bac^2” and the “growth in TM (test medium)” value (bacteria and fungi; [10]) was “Bac^3”. The “growth in BP” value (bacteria and fungi; [11]) was “Bac”, the “growth in M (malt broth)” value (bacteria and fungi; [11]) was “Bac” and the “growth in TM (test medium)” value (bacteria and fungi; [11]) was “Bac”. The “growth in BP” value (bacteria and fungi; [12]) was “Bac”, the “growth in M (malt broth)” value (bacteria and fungi; [12]) was “Bac” and the “growth in PM (peptonemethylamine broth)” value (bacteria and fungi; [12]) was “Bac”. The “growth in TM (test medium)” value (bacteria and fungi; [12]) was “Bac”, the “ozone concentration killing Cryptosporidium oocysts” value (Cryptosporidium oocysts) was “about 1.5 mg/L” and the “ozone concentration time value required to lower viable B. subtilis endospores by 99.9%” value ([2]; buffered water (pH 7.8), no additional ozone demand) was “about 4”. For the same molecule, the “log 3 ozone concentration time value” ([2]; ozone only (diffuser), no acoustic energy, deionized water) was 4.46 and 4.5, the “log of colony forming units per mL” value ([2]; ozone setpoint 1.5 mg/L, diffuser, no acoustic energy, deionized water, at 5 minutes, about 5 at 0 minutes) was “about 2” and the “log 3 ozone concentration time value” ([2]; ozone with acoustic energy, intensity increased to 215 dB, 75 Hz, deionized water) was 4.0. For the same molecule, the “contact dosage needed to kill invertebrates” value (invertebrates) was roughly 0.3 mg/L, the “apparent mass transfer coefficient, increase” value [3] was “about 40%” and the “culture media tests of treated samples” value ([4]; one-minute treated sample, DYU medium, the only positive of thirty tests) was “positive growth of a green coccoid alga”. The “bacteria and zooflagellates in treated samples” value [4, 13] was “positive”, the “ciliates, dinoflagellates, nematodes in treated samples” value [4, 13] was “no ciliates, dinoflagellates, nematodes, etc., observed” and the “life in treated samples” value [4, 13] was “nearly devoid of life”. The “growth in Blk Sea (black sea medium, brackish at 16 psu)” value (phytoplankton) was “PHY^6”, the “growth in DYV (DY-V medium, freshwater)” value (phytoplankton) was “PHY^3” and the “growth in K (K medium, oceanic)” value (phytoplankton) was “PHY^4”. For the same molecule, the “growth in L1 + NH4 (coastal)” value (phytoplankton) was “PHY^5”, the “growth in L1/24 (coastal at 24 psu)” value (phytoplankton) was “PHY^7” and the “growth in Prov (coastal enriched with soil extract)” value (phytoplankton) was “PHY^8”.

Reference: US7595003B2, “On-board water treatment and management process and apparatus” (priority 2004, dated 2009)
